According to ChEMBL document CHEMBL2021880, “An Invitation to Open Innovation in Malaria Drug Discovery: 47 Quality Starting Points from the TCAMS” (ACS Med Chem Lett, 2011):

Assays:
[1] = Clearance in mouse microsomes at 0.5 uM; format: ADME, Microsome
[2] = Clearance in human microsomes at 0.5 uM; format: ADME, Microsome
Plasmodium falciparum = test: Antimalarial activity against Plasmodium falciparum 3D7 A infected in red blood cells assessed as inhibition of [3H]hypoxanthine incorporation after 24 hrs by scintillation counting; format: functional, organism-based
[3] = molecular target: Voltage-gated inwardly rectifying potassium channel KCNH2 (Homo sapiens, UniProt Q12809); test: Displacement of Cy3b-dofetilide from human ERG expressed in CHO cells by fluorescence polarization assay
Sequence of Voltage-gated inwardly rectifying potassium channel KCNH2 (Q12809 whole entry): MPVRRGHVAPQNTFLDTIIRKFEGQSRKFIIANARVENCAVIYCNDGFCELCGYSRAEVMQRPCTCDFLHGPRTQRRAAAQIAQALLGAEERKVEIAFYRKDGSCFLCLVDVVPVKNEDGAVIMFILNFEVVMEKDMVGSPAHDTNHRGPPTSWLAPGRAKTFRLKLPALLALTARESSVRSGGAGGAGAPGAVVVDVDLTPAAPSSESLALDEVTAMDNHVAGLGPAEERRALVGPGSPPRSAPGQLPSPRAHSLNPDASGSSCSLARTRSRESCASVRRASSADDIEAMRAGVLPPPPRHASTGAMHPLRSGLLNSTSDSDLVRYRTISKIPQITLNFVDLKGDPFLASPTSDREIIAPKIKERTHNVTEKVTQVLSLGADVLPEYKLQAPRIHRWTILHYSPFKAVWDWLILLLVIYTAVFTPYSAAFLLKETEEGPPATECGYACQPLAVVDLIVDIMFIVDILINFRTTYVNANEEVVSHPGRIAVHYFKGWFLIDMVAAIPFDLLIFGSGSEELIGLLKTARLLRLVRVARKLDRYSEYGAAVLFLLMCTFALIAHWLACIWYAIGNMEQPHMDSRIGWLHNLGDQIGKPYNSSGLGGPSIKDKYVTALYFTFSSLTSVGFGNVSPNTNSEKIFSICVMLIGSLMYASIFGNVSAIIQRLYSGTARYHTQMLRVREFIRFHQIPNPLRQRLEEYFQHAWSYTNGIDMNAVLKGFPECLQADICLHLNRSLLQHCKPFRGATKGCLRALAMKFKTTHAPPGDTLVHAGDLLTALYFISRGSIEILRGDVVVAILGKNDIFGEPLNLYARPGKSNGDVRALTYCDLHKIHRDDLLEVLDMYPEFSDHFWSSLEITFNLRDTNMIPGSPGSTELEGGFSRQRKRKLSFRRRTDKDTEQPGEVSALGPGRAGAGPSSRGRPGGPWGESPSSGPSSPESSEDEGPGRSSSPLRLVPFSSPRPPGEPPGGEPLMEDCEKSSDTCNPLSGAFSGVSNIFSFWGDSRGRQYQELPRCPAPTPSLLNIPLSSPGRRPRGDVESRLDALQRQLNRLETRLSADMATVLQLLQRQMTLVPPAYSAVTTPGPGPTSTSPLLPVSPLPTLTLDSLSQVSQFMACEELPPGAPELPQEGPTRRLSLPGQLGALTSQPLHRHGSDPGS

Structure (SMILES) | CL [1] [mL/min/g] | CL [2] [mL/min/g] | IC50 (Plasmodium falciparum) [nM] | INH [3] [µM] | XC50 (Plasmodium falciparum) [nM]
O=C(Nc1cc(C(F)(F)F)ccc1-n1cncn1)C1(c2ccccc2)CC1 | < 0.8 | < 0.3 | 30 | – | –
CN(C)CCNC(=O)c1cc2c(-c3ccc(Cl)cc3)nn(C)c2s1 | 4 | 0.3 | 950 | 6.3 | –
COc1cc2c(cc1C(F)(F)F)N(C(=O)Nc1cc(OC(F)(F)F)cc(-c3cccnc3)c1)CC2 | < 0.3 | < 0.3 | 80 | > 15 | 40
Cc1cc(C(=O)NC2CCN(CC3(c4ccc(Cl)cc4)CCC3)CC2)on1 | 5.6 | 18.8 | 80 | – | 90
CC(C)(C)c1cc(C(=O)N2CCN(c3ncccc3C(F)(F)F)CC2)n(Cc2ccccc2)n1 | > 30 | 12.7 | 100 | > 50 | –
